Experimental data taken from patent US7605265B2, “Heterodimers and methods of using them” (priority 2007, dated 2009).

Assays:
transient focal ischemia = experiment: MCAO (middle carotid artery occlusion model), transient focal ischemia; assay type: in vivo, mice
Experimental: The MCAO (middle carotid artery occlusion model) was performed to investigate the protective effects of compounds A, B and C on the brain when the brain was exposed to transient focal ischemia (lack of oxygen), emulating brain conditions during a stroke. […] The ability of the novel compounds to protect against the appearance of these neurological deficits was examined using a four-point scale neurological scoring system (Mann Whitney U test). For each of the following observable signs, the distribution of test subjects was noted (with and without treatment with the invention after ischemia): (0) no observable neurological deficits (normal); (1) failure to extend the left forepaw fully (mild); (2) circling to the contralateral side (moderate); and (3) loss of walking and righting reflex (severe). • (ii) The brains of the test subjects slices were sectioned into five pieces and the infarct area and volume of each slice was measured. The % of infarct area in test subjects treated with the invention after ischemia was compared to that of the control group for each brain slice. • (iii) Hemispheric brain swelling and infarct volume (the area of dead tissue caused by inadequate blood supply) was measured for test subjects treated with the invention after ischemia, and compared to that of the control group.
The compounds were administered 5 minutes after ischemia, 5 minutes after reperfusion, or 6 hours after ischemia. FIGS. 5a to 5f show results for the heterodimers compound B, C or A respectively, when administered 5 minutes after ischemia or reperfusion. FIGS. 5g and 5h show the results when the novel heterodimers were administered 6 hours after ischemia.
Compound B was administered at 5 minutes after ischemia. Distribution of neurological scores based on a four-point scale neurological scoring system (Mann Whitney U test): (0) no observable neurological deficits (normal); (1) failure to extend the left forepaw fully (mild); (2) circling to the contralateral side (moderate); and (3) loss of walking and righting reflex (severe).
The brain was sectioned into five pieces, each 2-mm thick. The infarct area of each posterior surface was analyzed by an image analysis program. The percentage of infarct area and volume were calculated and presented as the percentage of the infarct area of the contralateral hemisphere to eliminate the contribution of edema to the ischemic lesion.
The infarct area of each posterior surface was analyzed by an image analysis program. Hemispheric brain swelling was calculated as follows (ipsilateral volume−contralateral volume)/contralateral volume×100%.

[1] = molecular target: T1, butyrylcholinesterase (BChE) (Rattus norvegicus, UniProt Q9JKC1); experiment: biochemical
T1 construct: from tissue; host or cells: rat serum

[2] = molecular target: T2, acetylcholinesterase (AChE) (Rattus norvegicus, UniProt P37136); experiment: In vitro inhibition of AChE (cholinesterase assay, Ellman method); assay type: biochemical
T2 construct: from tissue; host or cells: rat brain cortex
T2 sequence (P37136 32-614): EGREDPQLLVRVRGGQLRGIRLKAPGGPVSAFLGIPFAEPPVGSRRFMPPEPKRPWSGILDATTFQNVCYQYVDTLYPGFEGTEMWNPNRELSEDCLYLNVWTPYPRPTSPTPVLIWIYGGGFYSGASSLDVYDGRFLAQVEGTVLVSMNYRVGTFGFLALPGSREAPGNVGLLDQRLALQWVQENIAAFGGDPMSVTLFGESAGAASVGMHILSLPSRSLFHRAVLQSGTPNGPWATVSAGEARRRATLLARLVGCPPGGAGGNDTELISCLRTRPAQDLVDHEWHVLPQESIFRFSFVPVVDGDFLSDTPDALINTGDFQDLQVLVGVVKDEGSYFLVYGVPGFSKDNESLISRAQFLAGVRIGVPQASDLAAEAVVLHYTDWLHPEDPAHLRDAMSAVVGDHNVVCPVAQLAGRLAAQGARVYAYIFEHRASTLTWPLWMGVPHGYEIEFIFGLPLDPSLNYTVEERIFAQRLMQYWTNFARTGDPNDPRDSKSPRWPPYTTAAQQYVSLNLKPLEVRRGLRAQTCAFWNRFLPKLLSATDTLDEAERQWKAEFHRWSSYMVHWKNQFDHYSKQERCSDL
Experimental: The in vitro inhibition of the enzymes acetylcholinesterase (AChE) and butyrylcholinesterase (BChE) were assessed. BChE, like AChE, breaks down acetylcholine (ACh) but is found in plasma and other organs such as the liver, skin and gastrointestinal tract.
The enzymes, AChE and BChE, used in the inhibition studies were prepared from the cortex and serum of decapitated rats, respectively.

[3] = 0.005 μg/kg, 5 minutes after reperfusion
[4] = 0.005 μg/kg, 6 hours after ischemia
[5] = 0.05 μg/kg, 5 minutes after reperfusion
[6] = 0.05 μg/kg, 6 hours after ischemia

T1 sequence (Q9JKC1 24-597): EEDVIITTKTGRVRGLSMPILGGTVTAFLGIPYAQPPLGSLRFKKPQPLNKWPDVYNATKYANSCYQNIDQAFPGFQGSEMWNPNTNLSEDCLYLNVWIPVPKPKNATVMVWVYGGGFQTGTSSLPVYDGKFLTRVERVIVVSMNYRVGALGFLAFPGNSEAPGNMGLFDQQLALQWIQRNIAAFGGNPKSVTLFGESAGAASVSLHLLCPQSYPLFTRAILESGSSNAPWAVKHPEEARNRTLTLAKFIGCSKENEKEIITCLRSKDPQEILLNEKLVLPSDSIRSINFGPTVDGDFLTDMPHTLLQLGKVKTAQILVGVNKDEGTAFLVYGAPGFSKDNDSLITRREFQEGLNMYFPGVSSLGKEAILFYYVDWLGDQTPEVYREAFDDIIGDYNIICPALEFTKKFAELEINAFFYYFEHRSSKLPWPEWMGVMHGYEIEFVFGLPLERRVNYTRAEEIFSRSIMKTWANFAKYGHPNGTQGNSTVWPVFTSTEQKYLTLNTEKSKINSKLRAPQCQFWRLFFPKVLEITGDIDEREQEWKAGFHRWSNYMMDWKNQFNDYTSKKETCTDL

**Q.** For `O=c1ccc2c([nH]1)CCCC2NCCCCCCCCNc1c2c(nc3cc(Cl)ccc13)CCCC2` (stereo not drawn) [Compound C], which “% Infarct area in brain slice # 1” value (transient focal ischemia; [3]) is on record?
**A.** The value was 18.8 ± 3.3%.

**Q.** And the “% Infarct area in brain slice # 2” value (transient focal ischemia; [3])?
**A.** Its value is 47.8 ± 3.0%.

**Q.** And the “% Infarct area in brain slice # 3” value (transient focal ischemia; [3])?
**A.** The value was 45.4 ± 1.8%.

**Q.** And the “% Infarct area in brain slice # 4” value (transient focal ischemia; [3])?
**A.** The value was 18.5 ± 3.8 %.

**Q.** What about the “% Infarct area in brain slice # 5” value (transient focal ischemia; [3]) of the same compound?
**A.** The value was 0.6 ± 0.5%.

**Q.** And the “Hemispheric swelling (%)” value (transient focal ischemia; [3])?
**A.** The value was 7.1 ± 1.0 %.

**Q.** And the “Infarct volume (%)” value (transient focal ischemia; [3])?
**A.** Its value is 30.1 ± 1.5 %.

**Q.** What about the “Observed Neurological Deficits Mean ± SEM” value (transient focal ischemia; [3]) of the same compound?
**A.** Its value is 1.0 ± 0.0.

**Q.** What about the “Observed Neurological Deficits, score 0 (number of animals)” value (transient focal ischemia; [3]) of the same compound?
**A.** Its value is 0.

**Q.** And the “Observed Neurological Deficits, score 1 (number of animals)” value (transient focal ischemia; [3])?
**A.** Its value is 9.

**Q.** And the “Observed Neurological Deficits, score 2 (number of animals)” value (transient focal ischemia; [3])?
**A.** The value was 0.

**Q.** And the “Observed Neurological Deficits, score 3 (number of animals)” value (transient focal ischemia; [3])?
**A.** The value was 0.

**Q.** And the “n (dead/total): dead/total” value (transient focal ischemia; [3])?
**A.** The value was 9 (1/10).

**Q.** What about the “% Infarct area in brain slice # 1” value (transient focal ischemia; [4]) of the same compound?
**A.** The value was 15.9 ± 4.0%.

**Q.** And the “% Infarct area in brain slice # 2” value (transient focal ischemia; [4])?
**A.** Its value is 40.2 ± 7.9%.

**Q.** And the “% Infarct area in brain slice # 3” value (transient focal ischemia; [4])?
**A.** Its value is 35.5 ± 5.3 %.

**Q.** And the “% Infarct area in brain slice # 4” value (transient focal ischemia; [4])?
**A.** The value was 12.5 ± 4.9 %.

**Q.** And the “% Infarct area in brain slice # 5” value (transient focal ischemia; [4])?
**A.** Its value is −0.8 ± 0.8%.

**Q.** And the “Hemispheric swelling (%)” value (transient focal ischemia; [4])?
**A.** Its value is 6.2 ± 1.2%.

**Q.** And the “Infarct volume (%)” value (transient focal ischemia; [4])?
**A.** Its value is 23.9 ± 4.3 %.

**Q.** What about the “Observed Neurological Deficits Mean ± SEM” value (transient focal ischemia; [4]) of the same compound?
**A.** The value was 1.3 ± 0.2.

**Q.** And the “Observed Neurological Deficits, score 0 (number of animals)” value (transient focal ischemia; [4])?
**A.** Its value is 0.

**Q.** And the “Observed Neurological Deficits, score 1 (number of animals)” value (transient focal ischemia; [4])?
**A.** Its value is 6.

**Q.** And the “Observed Neurological Deficits, score 2 (number of animals)” value (transient focal ischemia; [4])?
**A.** The value was 2.

**Q.** And the “Observed Neurological Deficits, score 3 (number of animals)” value (transient focal ischemia; [4])?
**A.** Its value is 0.

**Q.** And the “n (dead/total): dead/total” value (transient focal ischemia; [4])?
**A.** Its value is 8 (1/9).

**Q.** What about the “% Infarct area in brain slice # 1” value (transient focal ischemia; [5]) of the same compound?
**A.** The value was 12.8 ± 3.3%.

**Q.** What about the “% Infarct area in brain slice # 2” value (transient focal ischemia; [5]) of the same compound?
**A.** The value was 54.0 ± 4.1%.

**Q.** And the “% Infarct area in brain slice # 3” value (transient focal ischemia; [5])?
**A.** Its value is 51.4 ± 3.1%.

**Q.** And the “% Infarct area in brain slice # 4” value (transient focal ischemia; [5])?
**A.** Its value is 26.2 ± 6.7%.

**Q.** And the “% Infarct area in brain slice # 5” value (transient focal ischemia; [5])?
**A.** Its value is −1.0 ± 0.8%.

**Q.** What about the “Hemispheric swelling (%)” value (transient focal ischemia; [5]) of the same compound?
**A.** The value was 7.4 ± 1.0 %.

**Q.** And the “Infarct volume (%)” value (transient focal ischemia; [5])?
**A.** The value was 34.5 ± 3.7%.

**Q.** What about the “Observed Neurological Deficits Mean ± SEM” value (transient focal ischemia; [5]) of the same compound?
**A.** The value was 1.3 ± 0.2.

**Q.** And the “Observed Neurological Deficits, score 0 (number of animals)” value (transient focal ischemia; [5])?
**A.** Its value is 0.

**Q.** What about the “Observed Neurological Deficits, score 1 (number of animals)” value (transient focal ischemia; [5]) of the same compound?
**A.** Its value is 4.

**Q.** What about the “Observed Neurological Deficits, score 2 (number of animals)” value (transient focal ischemia; [5]) of the same compound?
**A.** Its value is 2.

**Q.** And the “Observed Neurological Deficits, score 3 (number of animals)” value (transient focal ischemia; [5])?
**A.** The value was 0.

**Q.** What about the “n (dead/total): dead/total” value (transient focal ischemia; [5]) of the same compound?
**A.** The value was 6 (1/7).

**Q.** And the “% Infarct area in brain slice # 1” value (transient focal ischemia; [6])?
**A.** Its value is 11.7 ± 3.3%.

**Q.** What about the “% Infarct area in brain slice # 2” value (transient focal ischemia; [6]) of the same compound?
**A.** The value was 38.0 ± 6.8 %.

**Q.** What about the “% Infarct area in brain slice # 3” value (transient focal ischemia; [6]) of the same compound?
**A.** Its value is 32.5 ± 6.6 %.

**Q.** What about the “% Infarct area in brain slice # 4” value (transient focal ischemia; [6]) of the same compound?
**A.** The value was 16.8 ± 6.0%.

**Q.** What about the “% Infarct area in brain slice # 5” value (transient focal ischemia; [6]) of the same compound?
**A.** Its value is 0.5 ± 0.4%.

**Q.** What about the “Hemispheric swelling (%)” value (transient focal ischemia; [6]) of the same compound?
**A.** The value was 5.0 ± 1.2%.

**Q.** And the “Infarct volume (%)” value (transient focal ischemia; [6])?
**A.** The value was 23.5 ± 4.4 %.

**Q.** What about the “Observed Neurological Deficits Mean ± SEM” value (transient focal ischemia; [6]) of the same compound?
**A.** The value was 1.3 ± 0.2.

**Q.** And the “Observed Neurological Deficits, score 0 (number of animals)” value (transient focal ischemia; [6])?
**A.** The value was 0.

**Q.** What about the “Observed Neurological Deficits, score 1 (number of animals)” value (transient focal ischemia; [6]) of the same compound?
**A.** Its value is 6.

**Q.** And the “Observed Neurological Deficits, score 2 (number of animals)” value (transient focal ischemia; [6])?
**A.** Its value is 2.

**Q.** What about the “Observed Neurological Deficits, score 3 (number of animals)” value (transient focal ischemia; [6]) of the same compound?
**A.** The value was 0.

**Q.** And the “n (dead/total): dead/total” value (transient focal ischemia; [6])?
**A.** The value was 8 (1/9).

**Q.** And the “infarct area in brain slices (in words)” value (transient focal ischemia; 5 minutes after reperfusion, FIG. 5c)?
**A.** Its value is “reduction in infarct area of brain slices #4”.

**Q.** And the “infarct size and hemispheric swelling (in words)” value (transient focal ischemia; 5 minutes after reperfusion, FIG. 5d)?
**A.** The value was “reduced infarct size and hemispheric swelling”.

**Q.** What about the “infarct area (in words)” value (transient focal ischemia; 6 hours after ischemia, FIG. 5g) of the same compound?
**A.** The value was “improvement in the infarct area”.

**Q.** And the “infarct volume (in words)” value (transient focal ischemia; 6 hours after ischemia, FIG. 5h)?
**A.** The value was “decreases infarct volume”.

**Q.** And the “neurological deficits induced by ischemia (in words)” value (transient focal ischemia; administered 5 minutes after reperfusion)?
**A.** The value was “reduced neurological deficits induced by ischemia”.

**Q.** And the “neurological deficits (in words)” value (transient focal ischemia; administration 6 hours after ischemia)?
**A.** The value was “reduced neurological deficits”.

**Q.** And the IC50 [1]?
**A.** The IC50 was 638 ± 122 nM.

**Q.** And the “times more potent than bis(7)-tacrine” value ([2]; AChE inhibition)?
**A.** Its value is ~1039.

**Q.** And the “times more potent than tacrine” value ([2]; AChE inhibition)?
**A.** Its value is ~11000.

**Q.** What about the “Selectivity AchE*” value ([2]; IC50 (BChE)/IC50 (AChE)) of the same compound?
**A.** The value was 50317.32.

**Q.** What about the IC50 ([2]; enzyme prepared from rat cortex) of the same compound?
**A.** Its IC50 is 0.0127 ± 0.002 nM.
